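Protocol summary: plate cells (96-well), add compound at 5 concentrations, incubate 48 h, interpolate endpoints linearly. GI50: concentration for 50% inhibition of growth. TGI is the concentration that stops growth completely.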
Tests used:
Test in all cases: DTP human tumour cell line panel, 48 h
786-0 renal = tested on: 786-0 renal
A549 NSCLC = tested on: A549 NSCLC
ACHN renal = tested on: ACHN renal
BT-549 breast = tested on: BT-549 breast
CAKI-1 renal = tested on: CAKI-1 renal
CCRF-CEM leukemia = tested on: CCRF-CEM leukemia
COLO 205 colon = tested on: COLO 205 colon
DU-145 prostate = tested on: DU-145 prostate
EKVX NSCLC = tested on: EKVX NSCLC
HCC-2998 colon = tested on: HCC-2998 colon
HCT-116 colon = tested on: HCT-116 colon
HCT-15 colon = tested on: HCT-15 colon
HOP-62 NSCLC = tested on: HOP-62 NSCLC
HOP-92 NSCLC = tested on: HOP-92 NSCLC
HS 578T breast = tested on: HS 578T breast
HT29 colon = tested on: HT29 colon
IGROV1 ovarian = tested on: IGROV1 ovarian
K-562 leukemia = tested on: K-562 leukemia
KM12 colon = tested on: KM12 colon
LOX IMVI melanoma = tested on: LOX IMVI melanoma
M14 melanoma = tested on: M14 melanoma
MCF7 breast = tested on: MCF7 breast
MDA-MB-231 breast = tested on: MDA-MB-231 breast
MDA-MB-435 = tested on: MDA-MB-435
MOLT-4 leukemia = tested on: MOLT-4 leukemia
NCI-H23 lung = tested on: NCI-H23 lung
NCI-H460 lung = tested on: NCI-H460 lung
NCI-H522 lung = tested on: NCI-H522 lung
NCI/ADR-RES ovarian = tested on: NCI/ADR-RES ovarian
OVCAR-3 ovarian = tested on: OVCAR-3 ovarian
OVCAR-4 ovarian = tested on: OVCAR-4 ovarian
OVCAR-5 ovarian = tested on: OVCAR-5 ovarian
OVCAR-8 ovarian = tested on: OVCAR-8 ovarian
PC-3 prostate = tested on: PC-3 prostate
RPMI-8226 leukemia = tested on: RPMI-8226 leukemia
RXF 393 renal = tested on: RXF 393 renal
SF-268 CNS = tested on: SF-268 CNS
SF-295 CNS = tested on: SF-295 CNS
SF-539 CNS = tested on: SF-539 CNS
SK-MEL-2 melanoma = tested on: SK-MEL-2 melanoma
SK-MEL-28 melanoma = tested on: SK-MEL-28 melanoma
SK-MEL-5 melanoma = tested on: SK-MEL-5 melanoma
SK-OV-3 ovarian = tested on: SK-OV-3 ovarian
SN12C renal = tested on: SN12C renal
SNB-19 CNS = tested on: SNB-19 CNS
SNB-75 CNS = tested on: SNB-75 CNS
SW-620 colon = tested on: SW-620 colon
T-47D breast = tested on: T-47D breast
TK-10 renal = tested on: TK-10 renal
U251 CNS = tested on: U251 CNS
UACC-257 melanoma = tested on: UACC-257 melanoma
UACC-62 melanoma = tested on: UACC-62 melanoma
UO-31 renal = tested on: UO-31 renal
A498 renal = tested on: A498 renal
MALME-3M melanoma = tested on: MALME-3M melanoma
NCI-H226 lung = tested on: NCI-H226 lung
SR leukemia = tested on: SR leukemia
HL-60(TB) leukemia = tested on: HL-60(TB) leukemia

## C=CCC(NCc1ccccc1)c1cn(C(=O)OCC)c2ccccc12 (stereo not drawn)
786-0 renal
  GI50: 18.7 µM
  TGI: 38.8 µM
A549 NSCLC
  GI50: 31.5 µM
  TGI: > 100 µM
ACHN renal
  GI50: 18.5 µM
  TGI: 36.5 µM
BT-549 breast
  GI50: 21.3 µM
  TGI: 46.9 µM
CAKI-1 renal
  GI50: 18.5 µM
  TGI: 41.6 µM
CCRF-CEM leukemia
  GI50: 19.4 µM
  TGI: 42.1 µM
COLO 205 colon
  GI50: 28 µM
  TGI: > 100 µM
DU-145 prostate
  GI50: 20.8 µM
  TGI: 60.7 µM
EKVX NSCLC
  GI50: 20.7 µM
  TGI: 55.4 µM
HCC-2998 colon
  GI50: 14 µM
  TGI: 28.3 µM
HCT-116 colon
  GI50: 13 µM
  TGI: 25.7 µM
HCT-15 colon
  GI50: 20.9 µM
  TGI: 55 µM
HOP-62 NSCLC
  GI50: 24.6 µM
  TGI: 64.6 µM
HOP-92 NSCLC
  GI50: 13.8 µM
  TGI: 40.7 µM
HS 578T breast
  GI50: 20 µM
  TGI: 63.8 µM
HT29 colon
  GI50: 29.6 µM
  TGI: > 100 µM
IGROV1 ovarian
  GI50: 18.5 µM
  TGI: 71.7 µM
K-562 leukemia
  GI50: 2.37 µM
  TGI: 15 µM
KM12 colon
  GI50: 28.4 µM
  TGI: > 100 µM
LOX IMVI melanoma
  GI50: 17 µM
  TGI: 30.9 µM
M14 melanoma
  GI50: 18.6 µM
  TGI: 39.2 µM
MCF7 breast
  GI50: 51.8 µM
  TGI: > 100 µM
MDA-MB-231 breast
  GI50: 18.2 µM
  TGI: 44.1 µM
MDA-MB-435
  GI50: 20.2 µM
  TGI: 45.9 µM
MOLT-4 leukemia
  GI50: 10 µM
  TGI: 38.1 µM
NCI-H23 lung
  GI50: 17.7 µM
  TGI: 43.6 µM
NCI-H460 lung
  GI50: > 100 µM
  TGI: > 100 µM
NCI-H522 lung
  GI50: 19.8 µM
  TGI: 42.6 µM
NCI/ADR-RES ovarian
  GI50: 21.4 µM
  TGI: 52.1 µM
OVCAR-3 ovarian
  GI50: 17.3 µM
  TGI: 33.7 µM
OVCAR-4 ovarian
  GI50: 51.5 µM
  TGI: > 100 µM
OVCAR-5 ovarian
  GI50: 16 µM
  TGI: 44.6 µM
OVCAR-8 ovarian
  GI50: 24.1 µM
  TGI: 61.1 µM
PC-3 prostate
  GI50: 22.9 µM
  TGI: 96.4 µM
RPMI-8226 leukemia
  GI50: 13.1 µM
  TGI: 35.8 µM
RXF 393 renal
  GI50: 19 µM
  TGI: 46.5 µM
SF-268 CNS
  GI50: > 100 µM
  TGI: > 100 µM
SF-295 CNS
  GI50: 21.7 µM
  TGI: 47.4 µM
SF-539 CNS
  GI50: 5.47 µM
  TGI: 18.8 µM
SK-MEL-2 melanoma
  GI50: 33.1 µM
  TGI: > 100 µM
SK-MEL-28 melanoma
  GI50: 41.5 µM
  TGI: > 100 µM
SK-MEL-5 melanoma
  GI50: 13.9 µM
  TGI: 28 µM
SK-OV-3 ovarian
  GI50: 44.7 µM
  TGI: > 100 µM
SN12C renal
  GI50: 25.7 µM
  TGI: 60.9 µM
SNB-19 CNS
  GI50: 64.3 µM
  TGI: > 100 µM
SNB-75 CNS
  GI50: 43.1 µM
  TGI: > 100 µM
SW-620 colon
  GI50: 18.3 µM
  TGI: 41.7 µM
T-47D breast
  GI50: 33.3 µM
  TGI: > 100 µM
TK-10 renal
  GI50: 16.5 µM
  TGI: 36.6 µM
U251 CNS
  GI50: 19.2 µM
  TGI: 39.3 µM
UACC-257 melanoma
  GI50: 23.8 µM
  TGI: 49.5 µM
UACC-62 melanoma
  GI50: 22.6 µM
  TGI: 50.6 µM
UO-31 renal
  GI50: 30.4 µM
  TGI: > 100 µM

## COc1cc2c(/C=C3/C(=O)Nc4cc(C)c(O)cc43)c(Cl)[nH]c2cc1C
786-0 renal
  TGI: 8.91 µM
A498 renal
  TGI: 43.2 µM
A549 NSCLC
  TGI: 20.2 µM
ACHN renal
  TGI: 17.9 µM
BT-549 breast
  TGI: 45.3 µM
CAKI-1 renal
  TGI: 7.01 µM
CCRF-CEM leukemia
  TGI: 2.02 µM
COLO 205 colon
  TGI: 4.62 µM
DU-145 prostate
  TGI: 10.5 µM
HCT-116 colon
  TGI: 8.84 µM
HCT-15 colon
  TGI: 13.5 µM
HOP-62 NSCLC
  TGI: 10.9 µM
HOP-92 NSCLC
  TGI: > 100 µM
HS 578T breast
  TGI: 7.35 µM
HT29 colon
  TGI: 5.31 µM
IGROV1 ovarian
  TGI: 18.8 µM
K-562 leukemia
  TGI: 3.9 µM
KM12 colon
  TGI: 10.2 µM
LOX IMVI melanoma
  TGI: 35.5 µM
M14 melanoma
  TGI: 5.89 µM
MALME-3M melanoma
  TGI: 11.6 µM
MCF7 breast
  TGI: 13.4 µM
MDA-MB-231 breast
  TGI: 8.99 µM
MDA-MB-435
  TGI: 1.22 µM
MOLT-4 leukemia
  TGI: 0.835 µM
NCI-H226 lung
  TGI: 23.6 µM
NCI-H23 lung
  TGI: 5.87 µM
NCI-H460 lung
  TGI: 8.89 µM
NCI-H522 lung
  TGI: 11.1 µM
NCI/ADR-RES ovarian
  TGI: 12.8 µM
OVCAR-3 ovarian
  TGI: 3.68 µM
OVCAR-4 ovarian
  TGI: 24.1 µM
OVCAR-5 ovarian
  TGI: 15.6 µM
OVCAR-8 ovarian
  TGI: 15.7 µM
PC-3 prostate
  TGI: 21.9 µM
RPMI-8226 leukemia
  TGI: 4.44 µM
RXF 393 renal
  TGI: 7.1 µM
SF-268 CNS
  TGI: 31.9 µM
SF-295 CNS
  TGI: 5.07 µM
SF-539 CNS
  TGI: 5.93 µM
SK-MEL-2 melanoma
  TGI: 23.9 µM
SK-MEL-28 melanoma
  TGI: 18.9 µM
SK-MEL-5 melanoma
  TGI: 12.5 µM
SK-OV-3 ovarian
  TGI: 8.32 µM
SN12C renal
  TGI: 6.07 µM
SNB-19 CNS
  TGI: 14.8 µM
SNB-75 CNS
  TGI: 7.6 µM
SR leukemia
  TGI: 2.05 µM
SW-620 colon
  TGI: 12.4 µM
T-47D breast
  TGI: 18.2 µM
TK-10 renal
  TGI: 7.22 µM
U251 CNS
  TGI: 15.7 µM
UACC-257 melanoma
  TGI: 19.6 µM
UACC-62 melanoma
  TGI: 8.77 µM
UO-31 renal
  TGI: 17.7 µM

## CC(=O)O[C@H]1[C@@H](N2CCCCC2)C[C@H]2[C@@H]3CC=C4C[C@@H](N5CCCC5)CC[C@]4(C)[C@H]3CC[C@@]21C
786-0 renal
  TGI: > 100 µM
A498 renal
  TGI: > 100 µM
A549 NSCLC
  TGI: > 100 µM
ACHN renal
  TGI: > 100 µM
BT-549 breast
  TGI: > 100 µM
CAKI-1 renal
  TGI: > 100 µM
CCRF-CEM leukemia
  TGI: > 100 µM
COLO 205 colon
  TGI: > 100 µM
EKVX NSCLC
  TGI: > 100 µM
HCC-2998 colon
  TGI: 34.4 µM
HCT-116 colon
  TGI: > 100 µM
HCT-15 colon
  TGI: > 100 µM
HL-60(TB) leukemia
  TGI: > 100 µM
HOP-62 NSCLC
  TGI: > 100 µM
HOP-92 NSCLC
  TGI: > 100 µM
HS 578T breast
  TGI: > 100 µM
HT29 colon
  TGI: > 100 µM
IGROV1 ovarian
  TGI: > 100 µM
K-562 leukemia
  TGI: 22.5 µM
KM12 colon
  TGI: > 100 µM
LOX IMVI melanoma
  TGI: > 100 µM
M14 melanoma
  TGI: 36.4 µM
MALME-3M melanoma
  TGI: 52.4 µM
MCF7 breast
  TGI: > 100 µM
MDA-MB-231 breast
  TGI: > 100 µM
MDA-MB-435
  TGI: > 100 µM
MOLT-4 leukemia
  TGI: > 100 µM
NCI-H226 lung
  TGI: > 100 µM
NCI-H23 lung
  TGI: > 100 µM
NCI-H460 lung
  TGI: > 100 µM
NCI-H522 lung
  TGI: > 100 µM
NCI/ADR-RES ovarian
  TGI: > 100 µM
OVCAR-3 ovarian
  TGI: > 100 µM
OVCAR-4 ovarian
  TGI: > 100 µM
OVCAR-5 ovarian
  TGI: > 100 µM
OVCAR-8 ovarian
  TGI: > 100 µM
PC-3 prostate
  TGI: > 100 µM
RPMI-8226 leukemia
  TGI: 92.9 µM
RXF 393 renal
  TGI: > 100 µM
SF-268 CNS
  TGI: > 100 µM
SF-295 CNS
  TGI: > 100 µM
SF-539 CNS
  TGI: 34.5 µM
SK-MEL-2 melanoma
  TGI: > 100 µM
SK-MEL-28 melanoma
  TGI: 48.9 µM
SK-MEL-5 melanoma
  TGI: > 100 µM
SK-OV-3 ovarian
  TGI: > 100 µM
SN12C renal
  TGI: > 100 µM
SNB-19 CNS
  TGI: > 100 µM
SNB-75 CNS
  TGI: > 100 µM
SR leukemia
  TGI: 8.96 µM
SW-620 colon
  TGI: > 100 µM
T-47D breast
  TGI: > 100 µM
TK-10 renal
  TGI: > 100 µM
U251 CNS
  TGI: > 100 µM
UACC-257 melanoma
  TGI: 87.7 µM
UACC-62 melanoma
  TGI: > 100 µM
UO-31 renal
  TGI: > 100 µM
